These results are taken from ChEMBL document CHEMBL3301361, “Experimental in vitro DMPK and physicochemical data on a set of publicly disclosed compounds”.

As a reminder, the logD is lipophilicity at a set pH, counting ionised and neutral species.

The data set is described as follows: physchem. To be noted: octan-1-ol/water.

For the molecule `CN1CCN(C(=O)c2cc(-c3ccccc3)sc2NC(N)=O)CC1`, the logD (pH 7.4, LogD7.4) stood at 2.17.

Molecule `Cc1nc(C)c(-c2ccc3c(c2)CC[C@]32CC[C@@H](c3nnn[nH]3)CC2)nc1C(N)=O` returned a logD (pH 7.4, LogD7.4) of 1.4.

Molecule `CC1CC(OC(=O)C(O)c2ccccc2)CC(C)(C)C1` (stereo unspecified) [CYCLANDELATE] returned a logD (pH 7.4, LogD7.4) of 2.31.

In turn, `COc1ccc(Oc2cccc(CN3CCCC(n4cc(C)c(=O)[nH]c4=O)C3)c2)cc1` (stereo unspecified) showed a logD (pH 7.4, LogD7.4) of 3.17.

`CCN(CC)CCOc1ccc(N(C)C(=O)c2ccc(-c3ccc(C(F)(F)F)cc3)cc2)cc1OC` came in with a logD (pH 7.4, LogD7.4) of 3.13.

For the setting “pH 7.4, LogD7.4”, `O=C(NCCN1CCCC1)c1ccc(Nc2ncc3cc(-c4ccncc4)ccc3n2)cc1` gave a logD of 2.39.

Consider `CC[C@H](NC(=O)c1c([S+](C)[O-])c(-c2ccccc2)nc2ccccc12)c1ccccc1` (stereo partly specified), for which the logD (pH 7.4, LogD7.4) stood at 3.17.

Take `O=c1[nH]c2c(O)ccc([C@@H](O)CNCCc3ccc(CNCCc4c(Cl)cccc4Cl)cc3)c2s1`: the logD (pH 7.4, LogD7.4) was 2.3.

On to `CN(C)c1ccnc2sc(C(=O)NCc3ccccc3)c(N)c12`, for which the logD (pH 7.4, LogD7.4) came to 3.62.

`CS(=O)(=O)c1ccc(C(CCNC(=O)c2ccc(C#N)cc2)c2ccc(F)cc2)cc1` (stereo unspecified) yielded a logD (pH 7.4, LogD7.4) of 2.9.

The molecule `Cc1cc(Cl)ccc1OC1CCN(C[C@H](O)CNC(=O)c2c[nH]c(=O)c3cc(S(C)(=O)=O)ccc23)CC1` gave a logD (pH 7.4, LogD7.4) of 2.42.

Under “pH 7.4, LogD7.4”, `CN(C)CC(O)COc1ccc(Nc2nccc(Nc3cc(Cl)ccc3Cl)n2)cc1` (stereo unspecified) returned a logD of 2.9.

Take `O=C(O)c1ccc2c(c1)nc(Nc1cccc(Cl)c1)c1ccncc12` [SILMITASERTIB]: the logD (pH 7.4, LogD7.4) was determined as 1.29.

Molecule `CC(=O)NC[C@H]1CN(c2ccc(-n3ccc(C#N)c3)c(F)c2)C(=O)O1` showed a logD (pH 7.4, LogD7.4) of 1.6.

`CN1CCOc2cc(COC3CCCCC3)cnc21`: where the note is “pH 7.4, LogD7.4”, the logD was 3.1.

In turn, `O=c1c(-c2ccc(O)cc2)coc2cc(O)cc(O)c12` [GENISTEIN] had a logD (pH 7.4, LogD7.4) of 3.06.

Turning to `O=c1c(-c2ccc(O)c(O)c2)coc2cc(O)cc(O)c12` [OROBOL], the logD (pH 7.4, LogD7.4) came to 2.45.

`N#Cc1c(-c2ccccc2)nc(SCCc2ccccc2)[nH]c1=O`: the logD (pH 7.4) worked out at 1.71.

For the molecule `Cn1cncc1-c1c2c(=O)n(C3CC3)c(=O)n(CC3CC3)c2nn1Cc1ccnc2ccc(Cl)cc12`, the logD (pH 7.4, LogD7.4) came out at 3.53.

The molecule `COc1ccc(Cl)cc1NC(=O)CCS(=O)(=O)c1ccc(Br)cc1` had a logD (pH 7.4, LogD7.4) of 3.4.

In the case of `CCC(c1nc2ccsc2c(=O)n1Cc1ccccc1)N(CCCN)C(=O)c1ccc(C)cc1` (stereo unspecified), the logD (pH 7.4, LogD7.4) came out at 1.81.

Take `COc1cc(F)ccc1-c1cncc(CNC(=O)C2CC2)c1`: the logD (pH 7.4, LogD7.4) was found to be 2.9.

`CN(C)C(=O)C1(N2CCCCC2=O)CCN(CC[C@H](CN(C)C(=O)c2cc(C#N)cc3ccccc23)c2ccc(Cl)c(Cl)c2)CC1` showed a logD (pH 7.4, LogD7.4) of 2.52.

Regarding `CCCSc1c(C(=O)N(C)C2CCCCC2)cnn1-c1ccc(C(=O)O)cc1`, the logD (pH 7.4, LogD7.4) turned out to be 0.59.

With `c1ccc2nc(C3=NCCN3)ccc2c1`, for the setting “pH 7.4, LogD7.4”, the pH-dependent lipophilicity (logD) is 0.6.

Consider `CC(C)C(NC(=O)Cn1c(-c2ccccc2)ccc(NS(C)(=O)=O)c1=O)C(=O)C(F)(F)F` (stereo unspecified), for which the logD (pH 7.4, LogD7.4) was 1.77.

For the setting “pH 7.4, LogD7.4”, `Cn1c(=N)n(CC(=O)c2ccc(Cl)cc2)c2ccccc21` came in with a logD of 1.63.

For the setting “pH 7.4”, `CCC(COC(=O)c1cc(OC)c(OC)c(OC)c1)(c1ccccc1)N(C)C` (stereo unspecified) [TRIMEBUTINE] gave a logD of 3.77.

For the molecule `O=C(NCC12CC3CC(CC(C3)C1)C2)c1ccccc1`, the logD (pH 7.4, LogD7.4) came out at 4.21.

Where the note is “pH 7.4, LogD7.4”, `COc1ccc(NC(=O)c2ccc(-c3ccncc3)c(C)c2)cc1N1CCN(C)CC1` gave a logD of 2.56.

In the case of `CCCCN(CCCC)CCCOC(=O)c1ccc(N)cc1` [BUTACAINE], the logD (pH 7.4, LogD7.4) came to 1.93.

Consider `Cc1ccc(NC(=O)c2cccc(OCC(C)C)c2)cc1C(=O)Nc1cccnc1`, for which the logD (pH 7.4, LogD7.4) worked out at 2.81.

As to `COCCNC(=O)c1ccc(Nc2ncc3cc(-c4ccnc(C)c4)ccc3n2)cc1`, the logD (pH 7.4, LogD7.4) was found to be 3.56.

In turn, `NC(=O)c1cccc(O[C@@H]2C[C@H]3CC[C@@H](C2)N3Cc2ccccc2)c1` gave a logD (pH 7.4) of 1.76.

The molecule `CN1CCCC(n2nc(Cc3ccc(Cl)cc3)c3ccccc3c2=O)CC1` (stereo unspecified) [AZELASTINE] returned a logD (pH 7.4, LogD7.4) of 2.46.

As for `CSc1ccc(-c2nc(-c3ccc(F)cc3)c(-c3ccncc3)[nH]2)cc1`, the logD (pH 7.4, LogD7.4) is 2.97.

As to `Nc1ccc2c(c1)C(=O)C(=O)c1cc(N)ccc1-2`, the logD (pH 7.4, LogD7.4) is 1.72.

Regarding `c1ccc(-c2nc3ccccc3[nH]2)nc1`, where the note is “pH 7.4, LogD7.4”, the logD was 2.5.

Molecule `Cc1c(Cl)ccc(OC2CCN(C[C@H](O)CNC(=O)c3c[nH]c(=O)c4cc(S(C)(=O)=O)ccc34)CC2)c1Cl` gave a logD (pH 7.4, LogD7.4) of 2.83.

With `CC(C)C(NC(=O)Cn1c(-c2ccccc2)ccc(NS(N)(=O)=O)c1=O)C(=O)C(F)(F)F` (stereo unspecified), the logD (pH 7.4, LogD7.4) is 1.17.

With `Cc1ccc(NC(=O)c2cccc(N(C)C)c2)cc1NC(=O)c1ccc(OCc2ccccn2)cc1`, under “pH 7.4, LogD7.4”, the logD came out at 2.83.

`CC1=C(C2=C(C)C(=O)c3c(cc(O)c(O)c3Cc3ccccc3)C2=O)C(=O)c2cc(O)c(O)c(Cc3ccccc3)c2C1=O`: the logD (pH 7.4, LogD7.4) amounted to 2.73.

For the molecule `N#Cc1cccc(C(=O)Nc2cc(-c3ccccc3)nn2-c2ccccc2)c1`, for the setting “pH 7.4, LogD7.4”, the logD came out at 3.82.

Consider `CCN(CC)CCOCCOC(=O)C1(c2ccccc2)CCCC1` [CARBETAPENTANE], for which the logD (pH 7.4, LogD7.4) was 1.33.

The molecule `COc1ccccc1Oc1ccc(N(Cc2cccnc2)S(=O)(=O)CC(F)(F)F)cc1` returned a logD (pH 7.4, LogD7.4) of 1.5. The logD values of the last two molecules are within 0.2 log units of each other.

`N=C(N)Nc1ccc(C(=O)Oc2ccccc2)cc1`: the logD (pH 7.4, LogD7.4) is -0.21.

Where the note is “pH 7.4, LogD7.4”, `CCOc1ccc(Oc2ccc(S(=O)(=O)NC(=O)c3cccc(-c4ccc(Cl)c(Cl)c4)c3)cc2)cc1` registered a logD of 2.94.

In turn, `CC(C)C(NC(=O)Cn1c(-c2ccccc2)cc2c(O)nc(O)nc2c1=O)C(=O)C(F)(F)F` (stereo unspecified) yielded a logD (pH 7.4, LogD7.4) of 1.88.

As for `O=C(c1cc(Cc2n[nH]c(=O)c3ccccc23)ccc1F)N1CCN(c2ccccn2)CC1`, the logD (pH 7.4, LogD7.4) was 2.55.

Molecule `O=C(NCc1ccncc1)c1ccc(Oc2ccccc2)cc1` came in with a logD (pH 7.4, LogD7.4) of 3.26.

For the setting “pH 7.4, LogD7.4”, `NC(=O)c1cc(O)cc2nc(-c3ccc(O)cc3)oc12` displayed a logD of 2.3.

Molecule `O=C(N[C@H]1CN2CCC1CC2)c1ccc(Cl)cc1` [PNU-282987] returned a logD (pH 7.4) of 0.6.

Molecule `CCOC(=O)c1ccc(OC(=O)CCCCCNC(=N)N)cc1` [GABEXATE] showed a logD (pH 7.4, LogD7.4) of 2.41.

For the setting “pH 7.4, LogD7.4”, `Cc1nsc(C)c1CCC1CCN(S(=O)(=O)CC2(N(O)C=O)CCOCC2)CC1` gave a logD of 1.5.

Take `NS(=O)(=O)c1cc2c(cc1Cl)NC(C1CC3C=CC1C3)NS2(=O)=O` (stereo unspecified) [CYCLOTHIAZIDE]: the logD (pH 7.4, LogD7.4) was found to be 2.12.

The molecule `COC(=O)c1c(O)cccc1OC/C=C/c1ccc(F)c(-c2cc(C(=O)O)no2)c1` yielded a logD (pH 7.4, LogD7.4) of 0.66.

Turning to `CC(=O)N(C)c1ccc(Nc2ncc3cc(-c4ccncc4)ccc3n2)cc1`, under “pH 7.4, LogD7.4”, the logD came out at 2.88.

For `O=C1CCOc2nc(C#CC3CCCCC3)ccc21`, for the setting “pH 7.4, LogD7.4”, the pH-dependent lipophilicity (logD) worked out at 3.3.

For the setting “pH 7.4”, `CC1(C)CC(=O)c2c(nc3ccccc3c2N)C1` showed a logD of 3.

Take `CC[C@H](NC(=O)c1c([S+]([O-])C(C)C)c(-c2ccccc2)nc2ccccc12)c1ccccc1` (stereo partly specified): the logD (pH 7.4, LogD7.4) stood at 3.81.

Under “pH 7.4, LogD7.4”, `Cc1c(CN(C)C(=O)/C=C/c2cnc3c(c2)CCC(=O)N3)oc2ccccc12` [AFN-1252] gave a logD of 2.36.

`NS(=O)(=O)c1nc2ccccc2s1` yielded a logD (pH 7.4, LogD7.4) of 1.35.

As to `Cc1cccc(Nc2ccncc2S(=O)(=O)NC(=O)NC(C)C)c1` [TORSEMIDE], for the setting “pH 7.4, LogD7.4”, the logD was 0.3.

`Cc1cc(Nc2ccc(F)cc2)nc(N)n1` displayed a logD (pH 7.4, LogD7.4) of 2.08.

`CCCCCc1ccc(-c2nnc(N)s2)cc1` displayed a logD (pH 7.4) of 4.13.

For the molecule `NC(=O)Nc1cc(-c2ccccc2)sc1C(=O)N[C@H]1CCCNC1`, the logD (pH 7.4, LogD7.4) came to 1.04.
